Laboratory results reported in patent US20050244485A1, “Transdermal administration of hydrophilic drugs using a basic permeation enhancer composition” (priority 2003, published 2005).

Experiments:
[1] = cited from earlier work; for pH of 0.1 M aqueous sol'n: 0.1M aqueous solution, 25° C.
[2] = In vitro skin permeation of diclofenac sodium transdermal delivery systems, Franz diffusion cells; format: in vitro ADME, human; conditions: 24 hours; for cumulative amount of diclofenac that permeated through the skin: 32° C.
Procedure: Each formulation was coated on a release liner and dried in an oven at 65° C. for two hours to remove water and other solvents. The dried drug-in-adhesive/release liner film was laminated to a backing film, and the backing/drug-in-adhesive/release liner laminate was then cut into discs with a diameter of 9/16 inch. The theoretical weight percent weight of each component of the system, after drying (calculated assuming all volatile ingredients were completely removed during drying), is set forth in Table 3.
The release liner was peeled away from the disc laminate. […] The skin/adhesive/backing laminate was clamped between the donor and receiver chambers of the diffusion cell with the skin side facing the receiver solution. […] All cells and receiver solution were maintained at 32° C. for the 24-hour duration of the study.

Compound | pH of 0.1 M aqueous sol'n [1] | pKa [1] | also measured
CC1CCCCN1C (stereo not shown) [1,2-dimethylpiperidine] | 11.61 | 10.22 | 
CC1CCCN1C (stereo not shown) [1,2-dimethylpyrrolidine] | 11.60 | 10.20 | 
NCCCCN [1,4-butanediamine] | 11.90 |  | 
CCN1CCCCC1 [1-ethylpiperidine] | 11.73 | 10.45 | 
Cc1cccnc1C [2,3-dimethylpyridine] | 9.79 |  | 
Cc1cc(C)nc(C)c1 [2,4,6-trimethylpyridine] |  | 6.69 | 
Cc1c[nH]c(C)n1 [2,4-dimethylimidazole] | 10.68 | 8.36 | 
Cc1ccnc(C)c1 [2,4-dimethylpyridine] | 10.00 | 6.99 | 
Nc1ccc(N)nc1 [2,5-diaminopyridine] | 9.74 | 6.48 | 
CC1CNC(C)CN1 (stereo not shown) [2,5-dimethylpiperazine] | 11.33 | 9.66 | 
CCCCCC(C)N (stereo not shown) [2-aminoheptane] | 11.85 | 10.70 | 
COc1ccccn1 [2-methoxypyridine] | 8.14 |  | 
Cc1cncc(C)c1 [3,5-dimethylpyridine] | 9.58 |  | 
COc1cccnc1 [3-methoxypyridine] | 8.89 | 4.78 | 
COc1ccncc1 [4-methoxypyridine] | 9.79 | 6.58 | 
CN1CCCC1 [N-methylpyrrolidine] | 11.73 | 10.46 | 
c1ccc2[nH]cnc2c1 [benzitnidazole] | 9.24 | 5.48 | 
NCc1ccccc1 [benzylamine] | 11.17 |  | 
NC1CCCCC1 [cyclohexylamine] | 11.82 |  | 
O=C(O)Cc1ccccc1Nc1c(Cl)cccc1Cl [diclofenac, diclofenac sodium] |  |  | cumulative amount of diclofenac that permeated through the skin ([2]; N-methyl glucamine added (Formulation H, with NaOH)): 1.54 mg/cm^2; cumulative amount of diclofenac that permeated through the skin ([2]; monoethanolamine added (Formulation G, with NaOH)): 1.57 mg/cm^2; cumulative amount of diclofenac that permeated through the skin ([2]; no nitrogenous base added (Formulation E, NaOH only)): 0.90 mg/cm^2; cumulative amount of diclofenac permeated, times higher than when no nitrogenous base was present ([2]; system containing monoethanolamine vs no nitrogenous base): about 1.7 times; cumulative amount of diclofenac that permeated through the skin ([2]; triethanolamine added (Formulation F, with NaOH)): 1.08 mg/cm^2
NCCN [ethylenediamine] |  | 9.93 | 
CC(C)N [isopropylamine] | 11.80 | 10.60 | 
CCCCN [n-butylamine] | 11.81 |  | 
NCCc1ccccc1 [phenethylamine] | 11.42 |  | 
C1CNCCN1 [piperazine] | 11.42 |  | 
NC(N)=O [urea] | 6.55 |  | 
CC(N)c1ccccc1 (stereo not drawn) [α-methyl-benzylamine] | 11.38 | 9.75 | 
Cc1ccncc1 [γ-picoline] |  | 5.99 | 
